# Source: patent publication US6673555B1, “Methods of using SCAP antagonists” (SmithKline Beecham Corporation, priority 1999, dated 2004)
# Columns and labels:
# [1] = system: human LDL-receptor promoter; assay: LDL-receptor promoter luciferase reporter assay in transfected HepG2 cells; assay type: cell-based
# Source text: The human LDL-receptor promoter named p-588 corresponding to nucleotide −588 to +91 relative to the major transcription site was cloned by PCR from human genomic DNA (Clonetech) using SEQ ID NO: 3 […] and SEQ ID NO: 4 […] primers. and inserted into pGL3-basic vector (Promega) at Hind-III and Nco-I sites. The sequencing was identical to published promoter (Genbank L29401). Shorter promoters were obtained by PCR sub-cloning using Kpn-I and Nar-I sites. The primer SEQ ID NO: 5 […] corresponding to luciferase coding sequence was used as reverse primer for all constructs. The following primers were used to produce respectively p-149, p-118, p-70, p-53 and p-31 promoters: SEQ ID NO: 6 […], SEQ ID NO: 7 […], SEQ ID NO: 8 […], SEQ ID NO: 9 […] and SEQ ID NO: 10 […]. A vector containing the 38 bp of the minimal promoter of adenovirus Major Late Promoter (Ham. J. et al., EMBO, 10: 2931-2940 (1991)) was produced using Bgl-II and Hind-III site in pGL3-basic. Four repeats of the SRE sequence present on the human LDL-receptor promoter were introduced in p-MLP vector using Bgl-II site, SEQ ID NO: 11 […] and complementary oligo. HepG2 cells seeded the previous day at 3 10^5 cells per well of 24 well plate were transfected with 1 μg of LDL-promoter containing vector together with p-RL-TK control vector (Promega) using Fugene 6 (Boehringer). HepG2 cells were incubated for 28 hours in the presence of SCAP antagonist and/or 25OH-cholesterol. Firefly luciferase and Renila activity were measured using Dual Luciferase Assay Kit (Promega) and Lumistar (BMG). The ratio of Firefly luciferase to Renila were used to calculate mean and S.D. of tetraplicates.
# A vector containing the human LDL-receptor promoter coupled to Firefly luciferase reporter was made. A mixture of the LDL-receptor vector and control pRL-TK vector was used to transfect HepG2 cells. Cells were incubated with 25OH-cholesterol (0.2 or 1 μM) alone or in the presence (black bars) or absence (gray bars) of Example 1 (1 μM) for 28 hours before measurement of luciferase and renila activity. The ratio of luciferase activity versus renila activity was calculated and the mean and SD of triplicates were expressed as percent of control.
# Shortening the LDL-receptor promoter in the same reporter vector modifies the relative luciferase activity (FIG. 3A).
# HepG2 cells = assay: Uptake of Dil-LDL by HepG2 cells; assay type: cell-based; details: 10 μM, 24 hours, Dil-LDL 6 μg/ml for last 4 hours, FIG. 5
# Protocol: To determine if activation of LDL-receptor promoter also translated into an increase in functional LDL receptors, an LDL uptake assay was set up. HepG2 cells seeded at 8 10^4 cells per 8 well Biocoat slides (Beckton Dickinson) were treated with SCAP antagonist or 25OH-cholesterol for 20h and then incubated with 6 μg/ml of fluorescent Dil-LDL for 4 hours. The amount of fluorescent dye that accumulated in the lysosomes was quantified by fluorescence microscopy using Axioplan-2 Zeiss microscope equipped with DXC950P video camera (Sony) and red fluorescence filters.
# HepG2 cells were treated for 24 hours in the presence of 0.5 μM Example 1 or 10 μM 25OH-cholesterol. Dil-LDL (6 μg/ml) were added 4 hours before the end of the incubation. Cells were washed and observed by fluorescence microscopy using rhodamine filters and video camera with fixed settings.
# full length hamster SCAP = biological target: T1, full length hamster SCAP (Cricetulus griseus, UniProt P97260); assay: Photo-affinity labelling / competition binding on full length SCAP in infected Sf-9 cells
# T1 construct: recombinant baculovirus encoding for full length hamster SCAP containing a T7 tag; expressed in transfected cells; host or cells: Sf-9 insect cells infected with recombinant baculovirus (pTen12 transfer vector)
# T1 sequence (P97260 1-1276): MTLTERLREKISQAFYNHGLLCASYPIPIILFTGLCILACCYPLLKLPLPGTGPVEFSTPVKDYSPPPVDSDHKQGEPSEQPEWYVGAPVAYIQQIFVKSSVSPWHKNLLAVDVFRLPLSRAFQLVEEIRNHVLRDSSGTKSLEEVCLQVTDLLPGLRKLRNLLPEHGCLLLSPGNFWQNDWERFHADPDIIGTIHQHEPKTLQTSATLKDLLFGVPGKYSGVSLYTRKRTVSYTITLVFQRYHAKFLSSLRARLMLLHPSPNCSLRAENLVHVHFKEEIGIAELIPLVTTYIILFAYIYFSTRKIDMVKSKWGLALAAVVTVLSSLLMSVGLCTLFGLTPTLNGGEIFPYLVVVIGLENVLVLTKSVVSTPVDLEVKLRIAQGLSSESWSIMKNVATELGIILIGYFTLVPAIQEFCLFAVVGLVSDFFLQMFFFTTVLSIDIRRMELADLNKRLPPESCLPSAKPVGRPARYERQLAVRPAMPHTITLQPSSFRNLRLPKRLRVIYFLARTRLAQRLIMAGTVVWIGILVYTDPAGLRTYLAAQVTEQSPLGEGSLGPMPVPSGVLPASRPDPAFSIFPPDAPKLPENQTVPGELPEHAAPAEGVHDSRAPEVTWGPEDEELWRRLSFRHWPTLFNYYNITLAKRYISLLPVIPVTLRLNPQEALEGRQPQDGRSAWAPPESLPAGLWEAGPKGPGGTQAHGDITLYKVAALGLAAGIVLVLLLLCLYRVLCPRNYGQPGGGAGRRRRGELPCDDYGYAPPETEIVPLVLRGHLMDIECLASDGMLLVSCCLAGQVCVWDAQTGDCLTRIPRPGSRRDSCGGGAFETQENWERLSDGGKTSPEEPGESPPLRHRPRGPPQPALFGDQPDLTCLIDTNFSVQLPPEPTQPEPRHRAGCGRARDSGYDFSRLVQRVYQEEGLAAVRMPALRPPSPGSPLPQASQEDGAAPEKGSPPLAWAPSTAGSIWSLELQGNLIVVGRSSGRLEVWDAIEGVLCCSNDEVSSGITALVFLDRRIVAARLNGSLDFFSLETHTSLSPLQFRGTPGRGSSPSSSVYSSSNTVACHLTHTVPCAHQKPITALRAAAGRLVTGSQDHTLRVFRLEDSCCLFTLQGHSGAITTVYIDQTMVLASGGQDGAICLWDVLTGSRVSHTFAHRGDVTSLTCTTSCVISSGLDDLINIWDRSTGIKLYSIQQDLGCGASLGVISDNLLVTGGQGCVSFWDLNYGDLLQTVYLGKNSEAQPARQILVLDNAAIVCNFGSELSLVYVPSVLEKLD
# Protocol: Hamster SCAP cDNA was cut from pTK-HSV-SCAP-T7 using BgIII and Xbal and re-cloned in pTen 12 transfer vector. Recombinant baculovirus clones were produced by Quantum Biotechnologies Inc. and screened by western blots using T7-tag antibodies on Sf-9 infected cells. Sf-9 cells were grown in CCM-3 medium at 28° C. and seeded at 8×10^6 cells per 75 cm^2 flask. Four hours later they were infected with 200×10^6 pfu of baculovirus and incubated 3 days before harvest. […]
# (§1) Infected Sf-9 cells were harvested, washed in Dulbecco phosphate buffered saline and 2×10^5 cells were incubated with test compounds and the control (^14C radio-labeled Example 2 ) for 30 min at 28° C. in 24 well plates. […] The radioactivity was detected using a Phosporlmager screen (Molecular Dynamics).
# Sf-9 insect cells were infected with recombinant baculovirus encoding for full length hamster SCAP containing a T7 tag (FIG. 1A). Total protein (10 μg) from control cells (lanes b, d) or infected cells (lanes a, c) were analyzed by SDS-PAGE and either stained using Coomassie blue (lanes a, b) or blotted on nitrocellulose membrane following immuno-detection with T7 tag monoclonal antibody (lanes c, d). […] The gel was dried and radioactivity detected using Phosphor Imager Screen.
# [2] = biological target: T2, truncated form of SCAP corresponding to amino acid 2 to 473 (Cricetulus griseus, UniProt P97260); assay: Photo-affinity labelling / competition binding on truncated SCAP (amino acid 2 to 473) in Sf-9 cell membranes; design: species or system hamster
# T2 construct: a truncated form of SCAP corresponding to amino acid 2 to 473; expressed in transfected cells; host or cells: Sf-9 insect cells infected with recombinant baculovirus (Gateway pDest10 bacmid); membranes analysed
# T2 sequence (P97260 2-473): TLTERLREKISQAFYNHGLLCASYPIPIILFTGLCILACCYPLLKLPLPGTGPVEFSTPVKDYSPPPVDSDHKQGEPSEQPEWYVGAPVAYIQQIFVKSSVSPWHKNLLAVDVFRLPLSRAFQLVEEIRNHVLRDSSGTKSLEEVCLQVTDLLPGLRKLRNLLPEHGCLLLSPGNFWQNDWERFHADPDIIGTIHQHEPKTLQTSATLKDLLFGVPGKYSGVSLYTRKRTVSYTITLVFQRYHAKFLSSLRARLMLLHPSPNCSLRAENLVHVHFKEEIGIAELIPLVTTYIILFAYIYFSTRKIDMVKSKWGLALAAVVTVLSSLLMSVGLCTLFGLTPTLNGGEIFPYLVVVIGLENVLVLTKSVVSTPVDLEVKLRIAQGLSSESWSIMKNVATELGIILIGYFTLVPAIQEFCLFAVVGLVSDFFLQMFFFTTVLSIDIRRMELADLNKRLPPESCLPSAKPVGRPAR
# Protocol: Hamster SCAP cDNA was cut from pTK-HSV-SCAP-T7 using BgIII and Xbal and re-cloned in pTen 12 transfer vector. Recombinant baculovirus clones were produced by Quantum Biotechnologies Inc. and screened by western blots using T7-tag antibodies on Sf-9 infected cells. Sf-9 cells were grown in CCM-3 medium at 28° C. and seeded at 8×10^6 cells per 75 cm^2 flask. Four hours later they were infected with 200×10^6 pfu of baculovirus and incubated 3 days before harvest. Truncated SCAP corresponding to amino acid 2 to 473 was produced by PCR amplification with Platinium Pfx polymerase using pTK-HSV-SCAP-T7 as template and primers containing attB1 sequence followed by SEQ ID NO: 1 […] and the complement strand of attB2 sequence followed by SEQ ID NO: 2 […]. After recombination into pDonR201 vector using the Gateway cloning system, the inserts were recloned into pDest10 vector using LR recombinase. The corresponding bacmids and recombinant baculovirus were produced according the manufacturer instructions.
# A competition binding assay using recombinant SCAP protein was developed in Sf-9 insect cells. […]
# as §1, with “Dynamics). […]” for “Dynamics).”
compound,measurement,setting,value
"C[C@H](CCCC(C)(C)O)[C@H]1CC[C@H]2[C@@H]3CC=C4C[C@@H](O)CC[C@]4(C)[C@H]3CC[C@]12C [25OH-cholesterol, reference compound]",LDL-receptor promoter activity (luciferase/renila ratio),"[1]; 0.2 or 1 μM, 28 hours, HepG2, FIG. 2",represses LDL-receptor promoter activity
same,repression of shortened LDL-receptor promoter constructs,"[1]; HepG2, FIG. 3B right",two sequences are involved: SRE and FP-1
same,LDL uptake (Dil-LDL fluorescence),HepG2 cells,reduced it
"COc1cc(C(C)C)ccc1C1CCN(CCCCNC(=O)c2ccc(C(=O)c3ccccc3)cc2)CC1.Cl [Example 2, 4-(4-Benzoyl)-N-{4-[4-(4-isopropyl-2-methoxy-phenyl)-piperidin-1-yl]-butyl}-benzamide Hydrochloride]",photo-affinity labelling of SCAP by the radio-labelled compound,"full length hamster SCAP; 5 μM 14C-Example 2, 30 min at 28° C., 365 nm UV 10 min, FIG. 1A",specifically labeled SCAP
same,photo-affinity labelling of truncated SCAP by the radio-labelled compound,"[2]; 5 μM 14C-Example 2, membranes, FIG. 1B",can be labelled
"CCOC1=CC2=C(CN(C)C)C[C@@H]3[C@H](C(O)C[C@@]4(C)[C@H]3CC[C@@]43OCOC34COCO4)[C@@]2(C)CC1 (stereo partly drawn) [Example 3, 3-Ethoxy-11-hydroxy-androst-3,5-diene-17α,17β-(1,3,6,8-tetraoxaspiro[4.4]nonan-4-yl)-6-methyldimethylamine]",displacement of the 14C-Example 2 labelling of SCAP,"full length hamster SCAP; 100, 50, 20 μM test compound versus 5 μM 14C-Example 2, FIG. 1A",displaced in a dose dependant manner
same,competition with 14C-Example 2 labelling of truncated SCAP,"[2]; 200 μM or 100 μM test compound versus 5 μM 14C-Example 2, FIG. 1B",competitive
